{"source": "patent US20230065462A1", "about": "“Pharmaceutical composition and use thereof” (HENAN TAIFENG BIOLOGICAL TECHNOLOGY CO., LTD., priority 2020, published 2023)", "format_in_all_cases": "in vivo, Leghorn chickens", "key": {"[1]": {"system": "vascular endothelial cells", "experiment": "Cockscomb hemangioma model: cell apoptosis detection (TUNEL method and computer image analysis)", "settings": "x±s, high-power field", "description": "(§1) The experimental cocks were anesthetized through intramuscular injection of 0.1 mg/kg Sumianxin, fixed, and cleaned, and after being disinfected, each cockscomb was marked with gentian violet to form 4 circles with a diameter of 1 cm in turn on one side of the each cockscomb from front to back, and was injected at the center of each circle: the blank control group was injected with 0.5 mL of solvent (water for injection), the positive control group was injected with 0.5 mL of 5 mg/ml lauromacrogol injection, and the groups A-I were injected with 0.5 mL of the corresponding 13.2 mg/mL injection of compositions 1-9, respectively, and the standard is that the surface tissue of the cockscomb turns white and produces a skin hill. As the thickness of the cockscomb was 8˜10 mm, only one side of the cockscomb is injected subcutaneously, and the non-injected side of the contralateral side was used as the self-control group. After the injection, the cocks were continued to raise under uniform conditions, eaten and drunk freely until the material was obtained.\nThe TUNEL method is used for cell apoptosis detection including cell detection and tissue specimen detection. The principle is that deoxyuridine triphosphate is connected to the 3′-OH end of broken DNA in apoptotic cells by the catalysis of deoxyribonucleotide terminal transferase, and then is also bound to the luciferin antibody linked with horseradish peroxidase, and thus, the apoptotic cells can be accurately positioned through the bond of the luciferin antibody with the horseradish peroxidase substrate diaminobenzidine. […]"}, "cockscomb [2]": {"system": "cockscomb", "experiment": "Cockscomb hemangioma model: general (naked eye) observation of cockscomb after drug injection", "text": "Animals: 88 Leghorn chickens of clean grade and raised under uniform feeding conditions in the same batch, male, weighing 1000 1500 g, 10 12 weeks old, provided by the Animal Experimental Center of Qinglongshan Animal Breeding Farm in Jiangning, Nanjing. The cockscomb is required to be plump, smooth, ruddy, and no lesion. All animals are reared in the same laboratory according to the requirements of clean grade, and they can eat and drink freely. The experimental process complies with the People's Republic of China “Regulations on the Management of Laboratory Animals” and ethical requirements. Test drugs: each component of the drug composition is commercially available. Citric acid, paeoniflorin, and gallic acid are mixed at the ratio described in the following table to obtain com[…]-I, respectively. Then, each composition was dissolved in water for injection to obtain an injection with a concentration of 13.2 mg/mL. The positive control group used lauromacrogol parenteral solution (Specification: 10 mL: 100 mg, Shaanxi Tianyu Pharmaceutical Co., Ltd.) as a sclerosing agent, and was prepared into a 5 mg/ml injection with water for injection before use. The clean grade of male Leghorn chickens were selected and randomly divided into a blank control group, a positive control group and a pharmaceutical composition groups A-I, a total of 11 groups, each with 8 chickens. Four points were selected for the cockscomb of each cock as the drug injection point, and the cockscomb was observed, photographed, and sampled before the experiment and 3 days, 7 days, 14 days, and 28 days after the experiment. […] As the thickness of the cockscomb was 8 10 mm, only one side of the cockscomb is injected subcutaneously, and the non-injected side of the contralateral side was used as the self-control group. After the injection, the cocks were continued to raise under uniform conditions, eaten and drunk freely until the material was obtained. Before drug injection, the general condition of the cockscomb, including shape, color, thickness, surface condition, etc., were observed and recorded with photos. After the drug injection, the observation was performed every day, and included: the color change of the cockscomb, whether the epidermis has white spots, whether the edema occurs, whether tissue necrosis occurs on the surface, whether scab occurs, whether scar occurs, and whether the scab falls off, and the time distribution of fall off. The observation were recorded by taking photos at four time points, i.e., 3 days, 7 days, 14 days, and 28 days after the drug injection, and meanwhile, the experimental cock was anesthetized and the tissues at the injection site were taken and examined by light microscope."}, "cockscomb capillaries": {"system": "cockscomb capillaries", "experiment": "Cockscomb hemangioma model: number of capillaries (HE staining and computer image analysis)", "settings": "x±s, high-power field", "description": "as §1\n(§2) The tissues at the injection site were taken, fixed in 10% neutral formaldehyde fixative for 48 hours, embedded in paraffin, sectioned, stained with conventional HE, and examined by light microscope at 3 days, 7 days, 14 days, and 28 days after drug injection, respectively.\nThe processed tissue sections were sorted according to the number, and observed through an optical microscope. The changes in the number of blood vessels in each tissue section were observed under the adjusted high-power field of view (DABX400), and the changes in the number of apoptosis were observed by the TUNEL method. Five fields of view were randomly selected under the high-power field of view, and the image was analyzed using Tmage Proplus 6.0 software.\nAll data were processed with SPSS statistical software, and the data were expressed as x±s."}, "cockscomb [3]": {"system": "cockscomb", "experiment": "Cockscomb hemangioma model: HE staining, histopathological changes under light microscope", "text": "The clean grade of male Leghorn chickens were selected and randomly divided into a blank control group, a positive control group and a pharmaceutical composition groups A-I, a total of 11 groups, each with 8 chickens. Four points were selected for the cockscomb of each cock as the drug injection point, and the cockscomb was observed, photographed, and sampled before the experiment and 3 days, 7 days, 14 days, and 28 days after the experiment.\nas §1, §2"}}, "note": "Entries after “also recorded” stand apart in the source; their conditions may differ.", "data": [{"substance": "lauromacrogol [Positive control group]", "values": [{"measurement": "number of apoptotic cells", "setting": "[1]; 3 d", "value": "21.02 ± 3.56"}, {"measurement": "number of apoptotic cells", "setting": "[1]; 7 d", "value": "36.78 ± 3.87"}, {"measurement": "number of apoptotic cells", "setting": "[1]; 14 d", "value": "54.68 ± 3.65"}, {"measurement": "number of apoptotic cells", "setting": "[1]; 28 d", "value": "68.62 ± 3.27"}, {"measurement": "Cockscomb edema after drug injection", "setting": "cockscomb [2]; 0 d", "value": "no"}, {"measurement": "The color and scab at the cockscomb injection site after drug injection", "setting": "cockscomb [2]; 0 d", "value": "white skin hills"}, {"measurement": "Cockscomb appearance after drug injection", "setting": "cockscomb [2]; 0 d, 0.5 mL subcutaneous injection per point", "value": "normal"}, {"measurement": "Cockscomb appearance after drug injection", "setting": "cockscomb [2]; 3 d", "value": "normal"}, {"measurement": "Cockscomb edema after drug injection", "setting": "cockscomb [2]; 3 d", "value": "mild edema"}, {"measurement": "The color and scab at the cockscomb injection site after drug injection", "setting": "cockscomb [2]; 3 d", "value": "dark red"}, {"measurement": "Cockscomb appearance after drug injection", "setting": "cockscomb [2]; 7 d", "value": "normal"}, {"measurement": "Cockscomb edema after drug injection", "setting": "cockscomb [2]; 7 d", "value": "the edema decreased"}, {"measurement": "The color and scab at the cockscomb injection site after drug injection", "setting": "cockscomb [2]; 7 d", "value": "light yellow"}, {"measurement": "Cockscomb appearance after drug injection", "setting": "cockscomb [2]; 14 d", "value": "normal"}, {"measurement": "Cockscomb edema after drug injection", "setting": "cockscomb [2]; 14 d", "value": "the edema gradually decreased; also recorded: faintly edema"}, {"measurement": "The color and scab at the cockscomb injection site after drug injection", "setting": "cockscomb [2]; 14 d", "value": "the center part of the drug injection site had a black scab, the surrounding part was yellow"}, {"measurement": "Cockscomb appearance after drug injection", "setting": "cockscomb [2]; 28 d", "value": "normal"}, {"measurement": "Cockscomb edema after drug injection", "setting": "cockscomb [2]; 28 d", "value": "with no edema and with scar"}, {"measurement": "The color and scab at the cockscomb injection site after drug injection", "setting": "cockscomb [2]; 28 d", "value": "the black scab at the injection site fell off, became light yellow"}, {"measurement": "appearance of the cockscomb", "setting": "cockscomb [2]; throughout the experiment", "value": "remained normal"}, {"measurement": "number of capillaries", "setting": "cockscomb capillaries; 3 d", "value": "47.05 ± 4.12"}, {"measurement": "number of capillaries", "setting": "cockscomb capillaries; 7 d", "value": "41.89 ± 4.25"}, {"measurement": "number of capillaries", "setting": "cockscomb capillaries; 14 d", "value": "36.59 ± 3.62"}, {"measurement": "number of capillaries", "setting": "cockscomb capillaries; 28 d", "value": "24.68 ± 4.33"}, {"measurement": "The internal and external conditions of subcutaneous capillary lumens of cockscomb after drug injection", "setting": "cockscomb [3]; 3 d", "value": "inflammatory cells in the peripheral tissues were infiltrated, interstitial edema was obvious, and a small amount of collagen fibers proliferated"}, {"measurement": "The morphology and number of subcutaneous capillaries of cockscomb after drug injection", "setting": "cockscomb [3]; 3 d", "value": "subcutaneous capillaries were destroyed and fused"}, {"measurement": "The internal and external conditions of subcutaneous capillary lumens of cockscomb after drug injection", "setting": "cockscomb [3]; 7 d", "value": "collagen fibers were further proliferated, and inflammatory cells infiltrated and interstitial edema decreased"}, {"measurement": "The morphology and number of subcutaneous capillaries of cockscomb after drug injection", "setting": "cockscomb [3]; 7 d", "value": "capillaries were further decreased"}, {"measurement": "The internal and external conditions of subcutaneous capillary lumens of cockscomb after drug injection", "setting": "cockscomb [3]; 14 d", "value": "collagen fibers continued to proliferate"}, {"measurement": "The morphology and number of subcutaneous capillaries of cockscomb after drug injection", "setting": "cockscomb [3]; 14 d", "value": "the number of blood vessels continued to decrease"}, {"measurement": "The internal and external conditions of subcutaneous capillary lumens of cockscomb after drug injection", "setting": "cockscomb [3]; 28 d", "value": "filled with a large number of collagen fibers"}, {"measurement": "The morphology and number of subcutaneous capillaries of cockscomb after drug injection", "setting": "cockscomb [3]; 28 d", "value": "the capillaries were significantly reduced"}]}]}
